From ChEMBL document CHEMBL1201862, “PubChem BioAssay data set” (2004)
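Each compound was tested at five concentrations against cells in 96-well plates for 48 hours. GI50 = concentration required for 50% inhibition of growth.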 Activity calls are given as the source filed them. Rule as the data show it: active = GI50 up to about 1.1 µM and inactive = higher. Where a SMILES comes first, the peptide text is derived from it. The star is where a group is joined. Boc = CC(C)(C)OC(=O)*

Legend:
Experiment in all cases: DTP human tumour cell line panel, 48 h
[1] = test system: SF-295
[2] = test system: NCI-H226
[3] = test system: SK-MEL-28
[4] = test system: T47D
[5] = test system: LOX IMVI
[6] = test system: OVCAR-4
[7] = test system: SW-620
[8] = test system: OVCAR-5
[9] = test system: SK-OV-3
[10] = test system: BT-549
[11] = test system: MDA-MB-435
[12] = test system: A549
[13] = test system: HCT-116
[14] = test system: OVCAR-8
[15] = test system: NCI-H522
[16] = test system: SF-539
[17] = test system: U-251
[18] = test system: UO-31
[19] = test system: MOLT-4
[20] = test system: HL-60

Row | Structure (SMILES) | GI50 [1] | GI50 [2] | GI50 [3] | GI50 [4] | GI50 [5] | GI50 [6] | GI50 [7] | GI50 [8] | GI50 [9] | GI50 [10] | GI50 [11] | GI50 [12] | GI50 [13] | GI50 [14] | GI50 [15] | GI50 [16] | GI50 [17] | GI50 [18] | GI50 [19] | GI50 [20]
1 | CC1=NC2=Nc3nc(C)cc[n+]3CN2C=C1 | 85.5 µM (inactive) | > 100 µM (inactive) | 53.1 µM (inactive) | 70 µM (inactive) | 29.8 µM (inactive) | > 100 µM (inactive) | > 100 µM (inactive) | > 100 µM (inactive) | > 100 µM (inactive) | 49.3 µM (inactive) | 40 µM (inactive) | 79.3 µM (inactive) | 38.9 µM (inactive) | > 100 µM (inactive) | > 100 µM (inactive) | > 100 µM (inactive) | > 100 µM (inactive) | > 100 µM (inactive) | – | –
2 | COc1cc2c(cc1OCCCNC(=O)c1cc3ccccc3[nH]1)N=C[C@@H]1CCCN1C2=O | 0.405 µM (active) | 0.313 µM (active) | 0.318 µM (active) | 0.229 µM (active) | 0.421 µM (active) | 0.403 µM (active) | 0.378 µM (active) | 0.352 µM (active) | 1.6 µM (inactive) | 0.0736 µM (active) | 0.243 µM (active) | 0.632 µM (active) | 0.24 µM (active) | 0.301 µM (active) | 0.0141 µM (active) | 0.24 µM (active) | 0.148 µM (active) | 0.318 µM (active) | 0.125 µM (active) | –
3 | COC(=O)C1(O)c2ccccc2N=C2C(=O)c3ccccc3N21 (stereo not given) [METHYLISATOID] | > 100 µM (inactive) | > 100 µM (inactive) | > 100 µM (inactive) | – | 59.7 µM (inactive) | > 100 µM (inactive) | > 100 µM (inactive) | > 100 µM (inactive) | – | > 100 µM (inactive) | 12.2 µM (inactive) | > 100 µM (inactive) | > 100 µM (inactive) | > 100 µM (inactive) | > 100 µM (inactive) | > 100 µM (inactive) | > 100 µM (inactive) | > 100 µM (inactive) | > 100 µM (inactive) | > 100 µM (inactive)
4 | Cc1cn(C2CC(n3cc(Cn4cc(Br)c(=O)[nH]c4=O)nn3)C(CO)O2)c(=O)[nH]c1=O (stereo not given) | 41.9 µM (inactive) | – | > 100 µM (inactive) | > 100 µM (inactive) | > 100 µM (inactive) | > 100 µM (inactive) | > 100 µM (inactive) | > 100 µM (inactive) | 63.2 µM (inactive) | > 100 µM (inactive) | 42.1 µM (inactive) | > 100 µM (inactive) | 52.5 µM (inactive) | 13 µM (inactive) | – | > 100 µM (inactive) | 39.1 µM (inactive) | 88.1 µM (inactive) | 30.7 µM (inactive) | 0.0395 µM (active)
5 | CC(C)CC(N)C(=O)Nc1ccc2ccccc2c1 (stereo not given) | > 100 µM (inactive) | 67.8 µM (inactive) | > 100 µM (inactive) | > 100 µM (inactive) | > 100 µM (inactive) | 9.4 µM (inactive) | > 100 µM (inactive) | > 100 µM (inactive) | > 100 µM (inactive) | > 100 µM (inactive) | – | > 100 µM (inactive) | > 100 µM (inactive) | > 100 µM (inactive) | > 100 µM (inactive) | > 100 µM (inactive) | > 100 µM (inactive) | > 100 µM (inactive) | > 100 µM (inactive) | 98.2 µM (inactive)
6 | Cc1ccc(Oc2cc(C)ccc2P(=O)(O)O)cc1 | > 100 µM (inactive) | > 100 µM (inactive) | > 100 µM (inactive) | – | > 100 µM (inactive) | – | > 100 µM (inactive) | – | > 100 µM (inactive) | > 100 µM (inactive) | > 100 µM (inactive) | > 100 µM (inactive) | > 100 µM (inactive) | > 100 µM (inactive) | > 100 µM (inactive) | > 100 µM (inactive) | – | > 100 µM (inactive) | > 100 µM (inactive) | > 100 µM (inactive)
7 | COC(=O)C(Cc1c[nH]c2ccccc12)NC(=O)C(Cc1c[nH]c2ccccc12)NC(=O)C(Cc1c[nH]c2ccccc12)NC(=O)OC(C)(C)C (stereo not drawn) (Boc-Trp-Trp-Trp-OMe; configuration not given here) | – | 16.5 µM (inactive) | 17.7 µM (inactive) | 4.67 µM (inactive) | – | – | 21.5 µM (inactive) | 17.9 µM (inactive) | – | 18.1 µM (inactive) | – | 39.2 µM (inactive) | 16.2 µM (inactive) | 20.7 µM (inactive) | – | – | 18.5 µM (inactive) | 24.3 µM (inactive) | 17.3 µM (inactive) | 16.1 µM (inactive)
8 | COC(=O)c1cc(C)n(CN(Cc2ccccc2)Cn2nc(C(=O)OC)cc2C)n1 | > 79.8 µM (inactive) | > 100 µM (inactive) | > 81.5 µM (inactive) | > 48.3 µM (inactive) | > 100 µM (inactive) | > 64.1 µM (inactive) | > 46.9 µM (inactive) | > 82.2 µM (inactive) | > 100 µM (inactive) | > 100 µM (inactive) | > 100 µM (inactive) | > 100 µM (inactive) | > 43 µM (inactive) | > 84.1 µM (inactive) | > 100 µM (inactive) | > 45.9 µM (inactive) | > 100 µM (inactive) | > 46.1 µM (inactive) | > 100 µM (inactive) | –
9 | COc1ccccc1N1C(=O)C2C3c4ccccc4C(OC(C)=O)(c4ccccc43)C2C1=O (stereo not given) | 78.7 µM (inactive) | > 100 µM (inactive) | 71.9 µM (inactive) | > 100 µM (inactive) | > 100 µM (inactive) | 30.4 µM (inactive) | > 100 µM (inactive) | > 100 µM (inactive) | > 100 µM (inactive) | 49.9 µM (inactive) | – | > 100 µM (inactive) | 57.3 µM (inactive) | 43 µM (inactive) | – | 72.1 µM (inactive) | 60.7 µM (inactive) | > 100 µM (inactive) | > 100 µM (inactive) | > 100 µM (inactive)
10 | CC(C)(C)[Si](C)(C)OCC1OC(n2ccc(=O)[nH]c2=O)C(O[Si](C)(C)C(C)(C)C)/C1=N/O (stereo not given) | 4.74 µM (inactive) | 2.82 µM (inactive) | 3.3 µM (inactive) | 6.22 µM (inactive) | 4.67 µM (inactive) | 4.25 µM (inactive) | 4.38 µM (inactive) | 3.9 µM (inactive) | 6.41 µM (inactive) | 7.6 µM (inactive) | 3.11 µM (inactive) | 3.14 µM (inactive) | 2.45 µM (inactive) | 3.33 µM (inactive) | – | 3.11 µM (inactive) | 4.25 µM (inactive) | 3.61 µM (inactive) | 2.43 µM (inactive) | –
11 | CCNc1cc2oc(=O)cc(C(F)(F)F)c2cc1C | > 100 µM (inactive) | > 100 µM (inactive) | > 100 µM (inactive) | > 100 µM (inactive) | > 100 µM (inactive) | > 100 µM (inactive) | > 100 µM (inactive) | > 100 µM (inactive) | > 100 µM (inactive) | > 100 µM (inactive) | > 100 µM (inactive) | > 100 µM (inactive) | > 100 µM (inactive) | > 100 µM (inactive) | > 100 µM (inactive) | > 100 µM (inactive) | > 100 µM (inactive) | > 100 µM (inactive) | > 100 µM (inactive) | –
12 | C=C1CC=CC(C)(C)C1C/C=C(\C)C(O)CBr (stereo not given) | > 100 µM (inactive) | 37.5 µM (inactive) | > 100 µM (inactive) | – | 19.1 µM (inactive) | 76 µM (inactive) | 33.1 µM (inactive) | > 100 µM (inactive) | > 100 µM (inactive) | 97.3 µM (inactive) | 39.9 µM (inactive) | 74.3 µM (inactive) | 18.7 µM (inactive) | 29.4 µM (inactive) | 4.2 µM (inactive) | 29.9 µM (inactive) | 30.1 µM (inactive) | 35.7 µM (inactive) | 21.9 µM (inactive) | 32.4 µM (inactive)
13 | CC1(C)OC(C(C)(C)O)C(C(C)(C)O)O1 (stereo not given) | > 100 µM (inactive) | > 100 µM (inactive) | > 100 µM (inactive) | > 100 µM (inactive) | > 100 µM (inactive) | > 100 µM (inactive) | > 100 µM (inactive) | > 100 µM (inactive) | > 100 µM (inactive) | > 100 µM (inactive) | – | > 100 µM (inactive) | > 100 µM (inactive) | > 100 µM (inactive) | > 100 µM (inactive) | > 100 µM (inactive) | > 100 µM (inactive) | > 100 µM (inactive) | > 100 µM (inactive) | > 100 µM (inactive)
14 | CCOC(=O)c1c[nH]c(C(=O)C=[N+]=[N-])c1C1CCN(CC)C1=S (stereo not given) | > 100 µM (inactive) | – | > 100 µM (inactive) | > 100 µM (inactive) | – | > 100 µM (inactive) | > 100 µM (inactive) | > 100 µM (inactive) | > 100 µM (inactive) | > 100 µM (inactive) | > 100 µM (inactive) | > 100 µM (inactive) | > 100 µM (inactive) | > 100 µM (inactive) | > 100 µM (inactive) | – | > 100 µM (inactive) | > 100 µM (inactive) | > 100 µM (inactive) | –
15 | COC(=O)CCC(NC(=O)C(C)NC(=O)COC1C(O)C(OC(=O)CCNc2c3ccccc3nc3cccc([N+](=O)[O-])c23)OC(OCc2ccccc2)C1NC(C)=O)C(N)=O (stereo not given) | > 10 µM (inactive) | > 10 µM (inactive) | – | > 10 µM (inactive) | > 10 µM (inactive) | – | 0.114 µM (active) | > 10 µM (inactive) | > 10 µM (inactive) | > 10 µM (inactive) | 3.39 µM (inactive) | > 10 µM (inactive) | 1.64 µM (inactive) | 6.5 µM (inactive) | – | > 10 µM (inactive) | 9.98 µM (inactive) | > 10 µM (inactive) | 3 µM (inactive) | –
